Assay results reported in the supplement of paper PMC10307832.

Key:
Assay in all cases: relative viability (nuclei count vs DMSO), 5 days (fraction); higher = more cells survive
CX-5461 = compound: Cc1cnc(CNC(=O)c2c(=O)c3ccc(N4CCCN(C)CC4)nc3n3c2sc2ccccc23)cn1 [CX-5461]
Method in brief: (§1)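 Viability was read as treated-well nuclei divided by vehicle-well nuclei, using the median across plates. Lung cancer cell lines in 1536-well plates were kept overnight at 37 °C, pinned with five √10-spaced library-drug doses, and after 5 days were Hoechst-stained, imaged at 4× and counted in MetaXpress. Plates passed only with control CV below 25% and at least one doubling.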

IMD-0354 = compound: O=C(Nc1cc(C(F)(F)F)cc(C(F)(F)F)c1)c1cc(Cl)ccc1O [IMD-0354]
Method in brief: as §1

CX-5461 + Alpelisib = compound: Cc1cnc(CNC(=O)c2c(=O)c3ccc(N4CCCN(C)CC4)nc3n3c2sc2ccccc23)cn1 [CX-5461] + Cc1nc(NC(=O)N2CCC[C@H]2C(N)=O)sc1-c1ccnc(C(C)(C)C(F)(F)F)c1 [Alpelisib] (partner 2 µM)
Method in brief: (§2)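 A single step with final 0.05% Triton X-100, 1% formaldehyde and 1 ug/ml Hoechst fixed the cells and stained nuclei 5 days after treatment. Lung cancer cell lines in 1536-well plates had been treated by pin tool the day after seeding with one drug alone or a fixed anchor-drug dose plus five library-drug doses (not always all listed) in √10 steps, and nuclei were counted on 4× images. Relative viability is the ratio of nuclei in treated wells to nuclei in vehicle wells, taken as the median of duplicate plates.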

IMD-0354 + Pemetrexed = compound: O=C(Nc1cc(C(F)(F)F)cc(C(F)(F)F)c1)c1cc(Cl)ccc1O [IMD-0354] + Nc1nc2[nH]cc(CCc3ccc(C(=O)N[C@@H](CCC(=O)O)C(=O)O)cc3)c2c(=O)[nH]1 [Pemetrexed] (partner 0.2 µM)
Method in brief: as §2

Row | Cell Line | relative viability (CX-5461; 0.01 µM) | relative viability (CX-5461; 0.03162 µM) | relative viability (CX-5461; 0.1 µM) | relative viability (CX-5461; 0.3162 µM) | relative viability (CX-5461; 1 µM) | relative viability (IMD-0354; 0.04 µM) | relative viability (IMD-0354; 0.1265 µM) | relative viability (IMD-0354; 0.4 µM) | relative viability (IMD-0354; 1.265 µM) | relative viability (IMD-0354; 4 µM) | relative viability (CX-5461 + Alpelisib; first compound 0.01 µM) | relative viability (CX-5461 + Alpelisib; first compound 0.03162 µM) | relative viability (CX-5461 + Alpelisib; first compound 0.1 µM) | relative viability (CX-5461 + Alpelisib; first compound 0.3162 µM) | relative viability (CX-5461 + Alpelisib; first compound 1 µM) | relative viability (IMD-0354 + Pemetrexed; first compound 0.04 µM) | relative viability (IMD-0354 + Pemetrexed; first compound 0.1265 µM) | relative viability (IMD-0354 + Pemetrexed; first compound 0.4 µM) | relative viability (IMD-0354 + Pemetrexed; first compound 1.265 µM) | relative viability (IMD-0354 + Pemetrexed; first compound 4 µM)
1 | 201T | 0.985 | 1 | 0.986 | 0.985 | 0.936 | 1.1 | 1.15 | 0.563 | 0.725 | 0.324 | 1.01 | 1.05 | 1.01 | 1.03 | 1 | 0.271 | 0.343 | 0.368 | 0.319 | 0.234
2 | A549 | 0.969 | 0.96 | 0.748 | 0.811 | 0.193 | 1.11 | 0.991 | 0.496 | 0.229 | 0.109 | 0.771 | 0.561 |  | 0.508 | 0.0561 |  |  |  |  | 
3 | A-427 | 1.06 | 1.1 | 1.06 |  | 0.748 | 1.26 | 1.01 | 0.434 | 0.153 | 0.134 | 1.08 | 1.16 | 1.17 |  | 1.06 | 1.08 | 0.982 | 0.531 | 0.157 | 0.169
4 | ABC-1 | 1.04 | 0.785 | 0.712 | 0.309 | 0.568 | 1.07 | 1.05 | 0.498 | 0.222 | 0.259 | 1.12 | 0.916 |  | 1.09 | 0.751 |  |  |  |  | 
5 | BEN | 1.04 | 1 | 1.06 | 0.979 | 0.937 | 1.22 | 0.903 | 0.64 | 0.463 | 0.277 | 1.14 | 1.04 | 1.14 | 1.07 | 0.92 | 0.815 | 0.758 | 0.506 | 0.373 | 0.322
6 | CAL-12T | 1.02 | 0.994 | 0.947 | 0.936 | 0.662 | 1.07 | 0.922 | 0.545 | 0.251 | 0.162 | 1.25 | 1.17 |  | 1.37 | 0.546 | 1.37 | 0.916 | 0.574 | 0.559 | 0.204
7 | Calu-6 | 1.08 | 1.07 | 1.03 | 0.987 | 0.385 | 0.947 | 0.913 | 0.648 | 0.181 | 0.125 | 0.984 | 1.15 | 0.916 | 1.07 | 0.304 |  |  |  |  | 
8 | ChaGo-K-1 | 1.02 | 0.967 | 1.04 | 0.571 | 0.552 | 1.12 | 1.08 | 0.751 | 0.339 | 0.267 |  |  |  |  |  | 0.26 | 0.259 | 0.269 | 0.23 | 0.208
9 | EBC-1 | 1.01 | 1.05 | 1.08 | 0.907 | 0.782 | 0.914 | 0.971 | 0.585 | 0.304 | 0.205 | 0.899 | 0.943 | 0.75 | 0.775 | 0.425 |  |  |  |  | 
10 | IA-LM | 0.987 | 0.933 | 1 | 1.03 | 0.561 | 0.791 | 0.875 | 0.529 | 0.389 | 0.128 | 0.873 | 0.715 | 0.593 | 0.837 | 0.316 |  |  |  |  | 
11 | NCI-H522 | 0.98 | 0.944 | 0.946 |  | 0.951 | 0.934 | 0.848 | 0.909 | 0.7 | 0.406 |  |  |  |  |  | 1.35 | 0.895 | 0.91 | 0.62 | 0.397
12 | NCI-H727 | 1.07 | 1.03 | 1.03 | 0.875 | 0.78 | 0.838 | 0.908 | 0.732 | 0.494 | 0.509 | 0.606 | 0.597 | 0.547 | 0.611 | 0.592 |  |  |  |  | 
13 | NCI-H1299 | 0.998 | 0.99 | 1.02 | 1.01 | 0.944 | 0.85 | 1.02 | 0.638 | 0.221 | 0.179 | 1.04 | 1.04 | 1.08 | 1.1 | 0.992 |  |  |  |  | 
14 | NCI-H1648 | 0.614 | 0.952 | 0.674 | 0.742 | 0.851 | 0.588 | 0.686 | 0.685 | 0.814 | 0.365 |  |  |  |  |  | 0.653 | 0.693 | 0.401 | 0.455 | 0.277
15 | NCI-H1650 | 0.965 | 0.948 | 0.406 | 0.794 | 0.205 | 0.96 | 0.771 | 0.616 | 0.252 | 0.174 |  |  |  |  |  | 0.364 | 0.352 | 0.309 | 0.259 | 0.12
16 | NCI-H1703 | 0.955 | 1.06 | 0.91 | 1.09 | 0.569 | 1.11 | 1.02 | 0.507 | 0.282 | 0.14 | 0.314 | 0.419 | 0.28 | 0.332 | 0.267 |  |  |  |  | 
17 | NCI-H2342 | 0.997 | 1 | 0.834 | 1.04 | 0.889 | 1.03 | 1.05 | 0.764 | 0.633 | 0.476 |  |  |  |  |  | 0.814 | 0.822 | 0.585 | 0.508 | 0.408
18 | SW 900 | 0.918 | 1.11 | 0.586 | 0.877 | 0.401 | 0.987 | 0.889 | 0.509 | 0.239 | 0.243 |  |  |  |  |  | 0.544 | 0.519 | 0.329 | 0.182 | 0.196
